Here are results for twelve compounds from PubChem BioAssay (NCI).

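Test compounds were applied to cells in 96-well plates for 48 hours at 5 doses. GI50 = concentration required for 50% inhibition of growth. TGI denotes the concentration required for complete inhibition of growth.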

One test has as its system MALME-3M melanoma. Put plainly: DTP human tumour cell line panel, 48 h.
Turning to `Cc1nc2cccc([N+](=O)[O-])c2c(NCCCN(C)C)c1C`, the TGI (in general, the concentration giving total growth inhibition) was more than 31.6 µM.
Turning to `Cn1c(N2NC(=O)C(N=Nc3ccc(S(N)(=O)=O)cc3)C2=O)nc(-c2ccco2)c(C#N)c1=O` (stereo not drawn), the 50% growth inhibitory concentration (GI50) – broadly, the concentration that inhibits growth by half – was 0.0614 µM and the TGI came to 7.62 µM.
Regarding `NCC(=O)NS(=O)(=O)OC[C@H]1O[C@@H](n2cnc3c(N)ncnc32)[C@H](O)[C@@H]1O`, the GI50 is 1.92 µM and the total growth inhibition concentration (TGI) came to 3.87 µM.
Consider `Cc1c(C(=O)N/N=C/c2ccc(Cl)cc2)nnn1-c1ccnc2c(C(F)(F)F)cccc12`, for which the GI50 is 1.53 µM and the TGI stood at 4.4 µM.
The like results for `N#C/C(=C1C=C/C(=N/O)C(Br)=C/1)c1ccccc1` were, in that order, 4.72 µM and 22.6 µM.
For the compound `CN(C)CCNc1cc(-c2ccccc2)nc2ccccc12`, the GI50 is 12.6 µM and the TGI was determined as 27.7 µM.
For the compound `COc1cccc(/C=N/NC(=O)c2ccccc2Nc2ccnc(C(F)(F)F)c2)c1O`, the GI50 is 0.964 µM and the TGI was found to be 33.6 µM.
With `CC[CH2][Pb]([CH2]CC)([CH2]CC)[O]C(=O)C(F)(F)F`, the GI50 was 0.0894 µM and the TGI worked out at 0.348 µM.
Take `CCOC(=O)CCc1cc(=O)oc2cc(O)cc(O)c12`: the TGI is more than 100 µM.
Regarding `COC(=O)c1cc2c3ccccc3[nH]c2c2ncccc12`, the GI50 is more than 100 µM and the concentration for total growth inhibition (TGI) was more than 100 µM.
`CNC(=O)OCc1c(COC(=O)NC)c(-c2ccc(Cl)c(Cl)c2)n2c1SCC2` came in with a total growth inhibition concentration (TGI) of 37.8 µM.
Turning to `COc1ccc2c(c1)c(-c1nc(-c3cn(C)c4ncccc34)cs1)cn2CCCN1CCCCC1`, the GI50 was 1.64 µM and the total growth inhibition concentration (TGI) amounted to 3.25 µM.

Another test has as its system SNB-19 CNS. Put plainly: DTP human tumour cell line panel, 48 h.
Consider `Cc1nc2cccc([N+](=O)[O-])c2c(NCCCN(C)C)c1C`, for which the TGI is more than 100 µM.
As for `Cn1c(N2NC(=O)C(N=Nc3ccc(S(N)(=O)=O)cc3)C2=O)nc(-c2ccco2)c(C#N)c1=O` (stereo not drawn), the GI50 was more than 50 µM and the concentration for total growth inhibition (TGI) was more than 50 µM.
Regarding `NCC(=O)NS(=O)(=O)OC[C@H]1O[C@@H](n2cnc3c(N)ncnc32)[C@H](O)[C@@H]1O`, the GI50 is 0.378 µM and the concentration for total growth inhibition (TGI) turned out to be 1.48 µM.
Turning to `Cc1c(C(=O)N/N=C/c2ccc(Cl)cc2)nnn1-c1ccnc2c(C(F)(F)F)cccc12`, the GI50 is 12.1 µM and the TGI is 30.2 µM.
Regarding `N#C/C(=C1C=C/C(=N/O)C(Br)=C/1)c1ccccc1`, the GI50 is 8.7 µM and the TGI is more than 100 µM.
`CN(C)CCNc1cc(-c2ccccc2)nc2ccccc12`: the GI50 is 14.6 µM and the TGI is 49.7 µM.
For the compound `COc1cccc(/C=N/NC(=O)c2ccccc2Nc2ccnc(C(F)(F)F)c2)c1O`, the GI50 was 2.41 µM and the TGI is more than 100 µM.
Regarding `CC[CH2][Pb]([CH2]CC)([CH2]CC)[O]C(=O)C(F)(F)F`, the 50% growth inhibitory concentration (GI50) is 0.206 µM and the TGI stood at 0.81 µM.
Compound `CCOC(=O)CCc1cc(=O)oc2cc(O)cc(O)c12` showed a total growth inhibition concentration (TGI) of more than 100 µM.
For the compound `COC(=O)c1cc2c3ccccc3[nH]c2c2ncccc12`, the GI50 was 66.5 µM and the TGI is more than 100 µM.
In the case of `CNC(=O)OCc1c(COC(=O)NC)c(-c2ccc(Cl)c(Cl)c2)n2c1SCC2`, the concentration for total growth inhibition (TGI) is more than 84.9 µM.
With `COc1ccc2c(c1)c(-c1nc(-c3cn(C)c4ncccc34)cs1)cn2CCCN1CCCCC1`, the GI50 is 1.9 µM and the concentration for total growth inhibition (TGI) stood at 3.52 µM.

A further test has as its system PC-3 prostate. Put plainly: DTP human tumour cell line panel, 48 h.
For `Cc1nc2cccc([N+](=O)[O-])c2c(NCCCN(C)C)c1C`, the total growth inhibition concentration (TGI) is more than 50.8 µM.
For `Cn1c(N2NC(=O)C(N=Nc3ccc(S(N)(=O)=O)cc3)C2=O)nc(-c2ccco2)c(C#N)c1=O` (stereo not drawn), the GI50 is 23.2 µM and the TGI is more than 50 µM.
With `NCC(=O)NS(=O)(=O)OC[C@H]1O[C@@H](n2cnc3c(N)ncnc32)[C@H](O)[C@@H]1O`, the GI50 is 2.66 µM and the TGI stood at 6.47 µM.
Take `Cc1c(C(=O)N/N=C/c2ccc(Cl)cc2)nnn1-c1ccnc2c(C(F)(F)F)cccc12`: the GI50 was 3.04 µM and the TGI was 11.3 µM.
As to `N#C/C(=C1C=C/C(=N/O)C(Br)=C/1)c1ccccc1`, the GI50 was 0.568 µM and the total growth inhibition concentration (TGI) is 6.33 µM.
For `CN(C)CCNc1cc(-c2ccccc2)nc2ccccc12`, the GI50 was 4.61 µM and the total growth inhibition concentration (TGI) stood at 24.9 µM.
On the same counts, the results for `COc1cccc(/C=N/NC(=O)c2ccccc2Nc2ccnc(C(F)(F)F)c2)c1O` are 1.47 µM and more than 33.1 µM.
The like results for `CC[CH2][Pb]([CH2]CC)([CH2]CC)[O]C(=O)C(F)(F)F` were, in that order, 0.122 µM and 0.294 µM.
With `CCOC(=O)CCc1cc(=O)oc2cc(O)cc(O)c12`, the TGI is more than 100 µM.
In the case of `COC(=O)c1cc2c3ccccc3[nH]c2c2ncccc12`, the GI50 was more than 100 µM and the TGI was more than 100 µM.
With `CNC(=O)OCc1c(COC(=O)NC)c(-c2ccc(Cl)c(Cl)c2)n2c1SCC2`, the TGI stood at 55.1 µM.
For the compound `COc1ccc2c(c1)c(-c1nc(-c3cn(C)c4ncccc34)cs1)cn2CCCN1CCCCC1`, the GI50 was 1.76 µM and the TGI was 3.27 µM.

A further test concerns COLO 205 colon. Nature of the test: DTP human tumour cell line panel, 48 h.
As for `Cc1nc2cccc([N+](=O)[O-])c2c(NCCCN(C)C)c1C`, the total growth inhibition concentration (TGI) stood at 39.5 µM.
For `Cn1c(N2NC(=O)C(N=Nc3ccc(S(N)(=O)=O)cc3)C2=O)nc(-c2ccco2)c(C#N)c1=O` (stereo not drawn), the GI50 is 3.18 µM and the total growth inhibition concentration (TGI) is 11.8 µM.
With `NCC(=O)NS(=O)(=O)OC[C@H]1O[C@@H](n2cnc3c(N)ncnc32)[C@H](O)[C@@H]1O`, the GI50 is 2.27 µM and the total growth inhibition concentration (TGI) stood at 6.14 µM.
For the compound `Cc1c(C(=O)N/N=C/c2ccc(Cl)cc2)nnn1-c1ccnc2c(C(F)(F)F)cccc12`, the GI50 was 1.55 µM and the total growth inhibition concentration (TGI) was determined as 3.58 µM.
`N#C/C(=C1C=C/C(=N/O)C(Br)=C/1)c1ccccc1`: the GI50 was 6.89 µM and the TGI is 54.7 µM.
With `CN(C)CCNc1cc(-c2ccccc2)nc2ccccc12`, the GI50 was 2.92 µM and the TGI was 7.74 µM.
On the same counts, the results for `COc1cccc(/C=N/NC(=O)c2ccccc2Nc2ccnc(C(F)(F)F)c2)c1O` are 0.353 µM and more than 53.8 µM.
Take `CC[CH2][Pb]([CH2]CC)([CH2]CC)[O]C(=O)C(F)(F)F`: the concentration for 50% growth inhibition (GI50) is 0.164 µM and the TGI amounted to 0.374 µM.
Compound `CCOC(=O)CCc1cc(=O)oc2cc(O)cc(O)c12` had a concentration for total growth inhibition (TGI) of more than 100 µM.
For the compound `COC(=O)c1cc2c3ccccc3[nH]c2c2ncccc12`, the GI50 is more than 100 µM and the concentration for total growth inhibition (TGI) is more than 100 µM.
`CNC(=O)OCc1c(COC(=O)NC)c(-c2ccc(Cl)c(Cl)c2)n2c1SCC2` yielded a TGI of 26.7 µM.

Another test deals with NCI-H522 lung. Put plainly: DTP human tumour cell line panel, 48 h.
As to `Cc1nc2cccc([N+](=O)[O-])c2c(NCCCN(C)C)c1C`, the total growth inhibition concentration (TGI) was found to be 40.6 µM.
As to `Cn1c(N2NC(=O)C(N=Nc3ccc(S(N)(=O)=O)cc3)C2=O)nc(-c2ccco2)c(C#N)c1=O` (stereo not drawn), the GI50 was 5.42 µM and the concentration for total growth inhibition (TGI) amounted to 26.5 µM.
On to `NCC(=O)NS(=O)(=O)OC[C@H]1O[C@@H](n2cnc3c(N)ncnc32)[C@H](O)[C@@H]1O`, for which the GI50 was 1.75 µM and the TGI worked out at 3.85 µM.
On to `Cc1c(C(=O)N/N=C/c2ccc(Cl)cc2)nnn1-c1ccnc2c(C(F)(F)F)cccc12`, for which the GI50 was 11.8 µM and the concentration for total growth inhibition (TGI) is 35.2 µM.
Turning to `N#C/C(=C1C=C/C(=N/O)C(Br)=C/1)c1ccccc1`, the GI50 is 1.87 µM and the TGI came out at 5.23 µM.
For `CN(C)CCNc1cc(-c2ccccc2)nc2ccccc12`, the GI50 was 8.11 µM and the TGI was found to be 27.8 µM.
As to `COc1cccc(/C=N/NC(=O)c2ccccc2Nc2ccnc(C(F)(F)F)c2)c1O`, the GI50 was 0.521 µM and the concentration for total growth inhibition (TGI) was 46.1 µM.
For the compound `CC[CH2][Pb]([CH2]CC)([CH2]CC)[O]C(=O)C(F)(F)F`, the GI50 was 0.181 µM and the TGI came to 0.348 µM.
In turn, `CCOC(=O)CCc1cc(=O)oc2cc(O)cc(O)c12` yielded a TGI of more than 100 µM.
In the case of `COC(=O)c1cc2c3ccccc3[nH]c2c2ncccc12`, the GI50 is 86 µM and the TGI is more than 100 µM.
The compound `CNC(=O)OCc1c(COC(=O)NC)c(-c2ccc(Cl)c(Cl)c2)n2c1SCC2` showed a total growth inhibition concentration (TGI) of 21.5 µM. In other words, the double-digit micromolar range.
On to `COc1ccc2c(c1)c(-c1nc(-c3cn(C)c4ncccc34)cs1)cn2CCCN1CCCCC1`, for which the GI50 is 1.68 µM and the TGI was determined as 3.37 µM.
